For one assay, the target named is T1, Histone deacetylase 8 (Homo sapiens, UniProt Q9BY41).
T1 sequence (Q9BY41 whole entry): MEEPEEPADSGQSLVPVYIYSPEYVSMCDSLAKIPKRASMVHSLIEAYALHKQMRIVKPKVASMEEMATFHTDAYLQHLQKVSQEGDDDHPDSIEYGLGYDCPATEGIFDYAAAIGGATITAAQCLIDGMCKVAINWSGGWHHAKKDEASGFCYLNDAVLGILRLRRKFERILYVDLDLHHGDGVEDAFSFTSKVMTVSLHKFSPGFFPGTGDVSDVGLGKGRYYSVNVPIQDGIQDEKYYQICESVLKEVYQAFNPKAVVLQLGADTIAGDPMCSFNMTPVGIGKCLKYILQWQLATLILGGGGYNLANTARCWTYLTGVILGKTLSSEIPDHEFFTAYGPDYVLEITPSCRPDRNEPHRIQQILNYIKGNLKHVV
As to the kind of experiment: Inhibition of full length human C-terminal His-tagged HDAC8 expressed in baculovirus infected Sf9 insect cells using Boc-Lys(acetyl)-AMC as fluorogenic substrate measured after 1 hr by flourescence plate reader method.

In a further assay the test system is HeLa. As to the kind of experiment: cells. The class given is functional. The conditions noted are these: Homo sapiens, time 48 hrs.
For assay [1], the target named is T2, Protein deacetylase HDAC6 (Homo sapiens) (UniProt Q9UBN7).
T2 sequence (whole entry): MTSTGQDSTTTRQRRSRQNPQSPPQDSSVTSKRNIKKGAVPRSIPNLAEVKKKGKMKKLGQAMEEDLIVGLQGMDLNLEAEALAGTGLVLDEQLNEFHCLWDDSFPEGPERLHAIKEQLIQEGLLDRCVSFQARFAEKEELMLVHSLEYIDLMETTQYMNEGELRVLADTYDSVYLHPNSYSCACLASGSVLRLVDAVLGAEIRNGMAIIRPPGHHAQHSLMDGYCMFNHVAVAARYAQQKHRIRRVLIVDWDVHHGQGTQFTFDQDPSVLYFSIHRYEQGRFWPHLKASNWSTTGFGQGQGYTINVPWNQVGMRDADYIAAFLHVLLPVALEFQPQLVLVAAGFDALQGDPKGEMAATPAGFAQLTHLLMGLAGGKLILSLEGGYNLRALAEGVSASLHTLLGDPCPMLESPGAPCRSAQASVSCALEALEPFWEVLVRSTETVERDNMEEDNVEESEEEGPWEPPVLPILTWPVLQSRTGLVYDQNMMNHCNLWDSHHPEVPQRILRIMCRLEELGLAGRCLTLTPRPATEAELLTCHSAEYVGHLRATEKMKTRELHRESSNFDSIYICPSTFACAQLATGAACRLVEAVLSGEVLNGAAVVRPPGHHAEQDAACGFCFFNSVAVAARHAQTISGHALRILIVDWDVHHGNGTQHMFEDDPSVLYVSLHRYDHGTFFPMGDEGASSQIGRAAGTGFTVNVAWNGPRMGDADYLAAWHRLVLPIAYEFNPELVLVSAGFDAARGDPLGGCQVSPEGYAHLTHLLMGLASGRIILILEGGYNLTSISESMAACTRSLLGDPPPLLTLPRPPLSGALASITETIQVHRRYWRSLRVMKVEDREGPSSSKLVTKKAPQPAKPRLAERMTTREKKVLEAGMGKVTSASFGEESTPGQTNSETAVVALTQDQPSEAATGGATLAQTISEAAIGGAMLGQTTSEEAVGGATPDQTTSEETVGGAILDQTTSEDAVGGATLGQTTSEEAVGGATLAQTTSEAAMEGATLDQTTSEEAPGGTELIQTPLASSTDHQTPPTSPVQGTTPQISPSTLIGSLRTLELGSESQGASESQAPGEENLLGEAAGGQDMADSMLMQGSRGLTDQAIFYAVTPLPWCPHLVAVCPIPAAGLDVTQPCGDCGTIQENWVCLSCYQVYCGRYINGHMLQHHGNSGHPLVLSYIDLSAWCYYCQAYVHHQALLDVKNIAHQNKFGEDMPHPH
As to the kind of experiment: Inhibition of HDAC6 in human K562 cells assessed as increase in alpha tubulin acetylation at 10 uM measured after 8 hrs by Western blot analysis. Format: cell-based. A general note: In western blotting, separated proteins are transferred to a membrane and probed.

The target of a further assay is Histone deacetylase 2 (Homo sapiens, UniProt Q92769). Nature of the assay: Inhibition of full length human HDAC2 using Boc-Lys(acetyl)-AMC as fluorogenic substrate measured after 1 hr by flourescence plate reader method.
Histone deacetylase 2, sequence (Q92769 whole entry): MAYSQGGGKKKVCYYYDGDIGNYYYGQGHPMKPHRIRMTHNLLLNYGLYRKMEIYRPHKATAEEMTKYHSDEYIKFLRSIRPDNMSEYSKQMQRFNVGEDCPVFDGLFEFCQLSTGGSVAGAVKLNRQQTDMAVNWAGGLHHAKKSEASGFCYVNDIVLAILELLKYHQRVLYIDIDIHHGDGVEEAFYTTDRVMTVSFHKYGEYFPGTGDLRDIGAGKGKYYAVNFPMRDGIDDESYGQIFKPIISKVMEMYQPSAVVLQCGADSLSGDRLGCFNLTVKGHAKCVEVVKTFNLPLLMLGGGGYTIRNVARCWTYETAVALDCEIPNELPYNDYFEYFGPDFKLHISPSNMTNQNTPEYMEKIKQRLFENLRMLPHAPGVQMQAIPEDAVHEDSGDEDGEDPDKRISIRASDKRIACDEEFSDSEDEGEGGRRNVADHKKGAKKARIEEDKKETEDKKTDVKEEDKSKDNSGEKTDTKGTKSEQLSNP
The target of the next assay is Histone deacetylase 1 (Homo sapiens, UniProt Q13547). As to the kind of experiment: Inhibition of HDAC1 (unknown origin) using Boc-Lys(acetyl)-AMC as fluorogenic substrate measured after 1 hr by flourescence plate reader method.
Histone deacetylase 1, sequence (Q13547 whole entry): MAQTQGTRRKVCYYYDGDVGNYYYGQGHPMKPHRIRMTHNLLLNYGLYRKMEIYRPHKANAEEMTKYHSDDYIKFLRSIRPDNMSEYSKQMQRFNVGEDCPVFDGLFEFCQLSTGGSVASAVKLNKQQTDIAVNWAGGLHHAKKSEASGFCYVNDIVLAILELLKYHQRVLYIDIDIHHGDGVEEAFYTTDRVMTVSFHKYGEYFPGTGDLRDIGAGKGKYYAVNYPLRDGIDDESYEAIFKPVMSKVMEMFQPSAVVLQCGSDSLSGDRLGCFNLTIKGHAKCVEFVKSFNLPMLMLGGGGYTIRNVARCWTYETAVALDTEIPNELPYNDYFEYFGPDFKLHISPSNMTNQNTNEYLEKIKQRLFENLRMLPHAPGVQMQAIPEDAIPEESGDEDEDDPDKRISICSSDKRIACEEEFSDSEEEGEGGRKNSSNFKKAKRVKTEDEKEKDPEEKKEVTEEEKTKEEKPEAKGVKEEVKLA
The target in the next assay is T3, Histone deacetylase 7 (Homo sapiens, UniProt Q8WUI4).
T3 sequence (Q8WUI4 whole entry): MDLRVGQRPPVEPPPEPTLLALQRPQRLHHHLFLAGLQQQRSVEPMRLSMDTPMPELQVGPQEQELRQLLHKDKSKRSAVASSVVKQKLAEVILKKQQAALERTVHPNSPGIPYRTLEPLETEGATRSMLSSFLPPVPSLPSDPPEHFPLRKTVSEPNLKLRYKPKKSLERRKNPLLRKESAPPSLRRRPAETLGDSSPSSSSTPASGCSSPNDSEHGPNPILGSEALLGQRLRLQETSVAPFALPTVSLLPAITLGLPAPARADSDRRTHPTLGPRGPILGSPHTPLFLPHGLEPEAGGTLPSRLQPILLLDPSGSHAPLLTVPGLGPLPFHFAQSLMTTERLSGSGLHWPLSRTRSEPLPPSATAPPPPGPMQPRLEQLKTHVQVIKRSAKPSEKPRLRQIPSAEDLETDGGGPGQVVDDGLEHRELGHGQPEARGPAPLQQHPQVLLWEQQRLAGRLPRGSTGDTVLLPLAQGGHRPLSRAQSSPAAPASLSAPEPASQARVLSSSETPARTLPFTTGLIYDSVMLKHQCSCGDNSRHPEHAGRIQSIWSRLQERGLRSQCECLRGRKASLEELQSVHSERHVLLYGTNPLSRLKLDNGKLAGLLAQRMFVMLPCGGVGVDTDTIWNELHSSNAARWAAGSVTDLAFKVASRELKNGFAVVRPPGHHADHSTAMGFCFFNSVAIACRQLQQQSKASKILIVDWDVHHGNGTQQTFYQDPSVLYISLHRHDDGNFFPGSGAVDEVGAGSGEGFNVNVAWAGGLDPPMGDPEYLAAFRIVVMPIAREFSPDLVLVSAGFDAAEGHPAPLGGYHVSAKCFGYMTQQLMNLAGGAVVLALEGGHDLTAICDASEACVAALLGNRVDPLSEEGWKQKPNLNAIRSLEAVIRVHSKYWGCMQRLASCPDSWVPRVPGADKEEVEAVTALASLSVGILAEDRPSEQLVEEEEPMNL
As to the kind of experiment: Inhibition of human N-terminal GST tagged HDAC7 (518 to end residues) expressed in baculovirus infected Sf9 insect cells using Boc-Lys(acetyl)-AMC as fluorogenic substrate measured after 1 hr by flourescence plate reader method.

Activity calls are given as the source filed them. The rule behind the calls is not given here.

From ChEMBL document CHEMBL5055644, “Cysteine derivatives as acetyl lysine mimics to inhibit zinc-dependent histone deacetylases for treating cancer” (Eur J Med Chem, 2021) come the findings set out here.

As a reminder, the IC50 is the midpoint of a concentration-inhibition curve. A low value points to greater potency. In general, GI50 refers to the concentration giving 50% growth inhibition. Read a high GI50 as lower sensitivity of the cells.

Description for HeLa: Antiproliferative activity against human HeLa cells assessed as inhibition of cell proliferation incubated for 48 hrs by CCK8 assay

Consider `O=C(CCCSC[C@H](NC(=O)OCc1ccccc1)C(=O)Nc1ccccc1)NO`, for which the IC50 was more than 200 nM against Histone deacetylase 8, more than 200 nM against Histone deacetylase 2, 172 nM at Histone deacetylase 1 and more than 200 nM on Histone deacetylase 7. For the same molecule, in the assay with HeLa, the GI50 is 3800 nM. Also, the inhibition result in assay [1] was “Active”.
With `O=C(CCCSC[C@H](NC(=O)c1ccccc1)C(=O)Nc1ccccc1)NO`, the IC50 at Histone deacetylase 8 was more than 200 nM; against Histone deacetylase 2 it was more than 200 nM; against Histone deacetylase 1, 198 nM; against Histone deacetylase 7, more than 200 nM. Halving of growth in the assay with HeLa (GI50) required 4100 nM. Also, in assay [1], the inhibition entry was “Active”.
For the molecule `O=C(CCCSC[C@H](NC(=O)OCc1ccccc1)C(=O)Nc1cccc2ccccc12)NO`, the IC50 against Histone deacetylase 8 is more than 200 nM; at Histone deacetylase 2, more than 200 nM; against Histone deacetylase 1, 150 nM; at Histone deacetylase 7, more than 200 nM. In the assay on HeLa, growth was halved (GI50) at 4300 nM. Further, the inhibition entry in assay [1] was “Active”.
